In US20240165132A1, “METHODS AND MATERIALS FOR TREATING CANCER” (Mayo Foundation for Medical Education and Research, priority 2021, published 2024):
Like-named read-outs stand apart in the source and are kept apart here.

Assays:
[1] = system: GBM76 (p53 WT); experiment: MDM2 inhibitor pre-treatment then Bcl-XL inhibitor, CellTiter-Glo; type: cell-based, human; details: Homo sapiens
Method: Cells were then maintained for seven days, to allow time for cells to establish a senescent-like phenotype. […] Cell viability was evaluated after 5 days using the CellTiter-Glo luminescence-based cell viability assay.

[2] = system: 12 GBM cell lines; experiment: IC50 of senolytics in senescent vs. proliferating cells (Example 4); type: cell-based, human; details: FIG. 20
Method: 100 μM TMZ for 7 days or 10-20 Gy radiation (cesium gamma radiator) was used for senescence induction in human glioblastoma in vitro and senescence was confirmed by SA-Beta gal staining and RT-PCR, and protein level. Replication arrest was assessed by automated quantification of cellular confluence (Thermo Scientific Series 8000 WJ Incubator).

## Cc1c(-c2ccc(N3CCc4cccc(C(=O)Nc5nc6ccccc6s5)c4C3)nc2C(=O)O)cnn1CC12CC3CC(CC(C3)C1)C2 [A1331852]
[1]; read-out: IC50 of A1331852, GBM76, 5 Gy radiation alone (vehicle pre-treatment)
  IC50: 18.1 µM
[1]; read-out: IC50 of A1331852, GBM76, MDM2 inhibitor AMG232 1 μM 48 hours prior to 5 Gy radiation
  IC50: 4.5 µM
[2]
  Senolytic effect in radiated senescent vs 0 Gy non-senescent cells: selectively killing radiated, senescent tumor cells at lower concentrations
